Drawing on patent US10689430B2, “Insulin receptor partial agonists” (Merck Sharp & Dohme Corp., priority 2016, dated 2020), this text covers IC50 for 1 substance.

The target of this test is T1, human IR(B) (Homo sapiens, UniProt P06213).
T1 construct: expressed in transfected cells; host or cells: CHO cells (membrane preparation)
Briefly: Insulin receptor binding assay (SPA, 125[I]-insulin competition). To be noted: cell membranes from CHO cells overexpressing human IR(B). The protocol: Cell membranes were prepared in 50 mM Tris buffer, pH 7.8 containing 5 mM MgCl2.

T1 sequence (P06213 28-758 limits assumed): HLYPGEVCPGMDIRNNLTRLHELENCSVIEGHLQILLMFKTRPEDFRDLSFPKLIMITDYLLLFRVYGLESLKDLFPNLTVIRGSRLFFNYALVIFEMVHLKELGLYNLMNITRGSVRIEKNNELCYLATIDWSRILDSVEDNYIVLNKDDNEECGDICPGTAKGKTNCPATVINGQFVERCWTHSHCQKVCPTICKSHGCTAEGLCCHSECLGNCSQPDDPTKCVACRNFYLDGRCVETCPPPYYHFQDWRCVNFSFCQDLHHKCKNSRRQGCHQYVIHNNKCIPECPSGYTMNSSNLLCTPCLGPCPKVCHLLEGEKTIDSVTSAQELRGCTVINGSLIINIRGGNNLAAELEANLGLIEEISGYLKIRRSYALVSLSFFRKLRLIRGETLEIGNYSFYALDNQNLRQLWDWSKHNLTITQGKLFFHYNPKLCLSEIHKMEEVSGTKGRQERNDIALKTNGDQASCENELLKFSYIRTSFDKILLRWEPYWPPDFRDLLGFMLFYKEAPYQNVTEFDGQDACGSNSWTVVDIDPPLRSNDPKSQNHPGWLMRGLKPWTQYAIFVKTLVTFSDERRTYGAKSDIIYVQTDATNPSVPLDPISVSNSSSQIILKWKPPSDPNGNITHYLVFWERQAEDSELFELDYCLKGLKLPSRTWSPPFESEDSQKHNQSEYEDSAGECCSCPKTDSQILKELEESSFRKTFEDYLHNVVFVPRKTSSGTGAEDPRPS
T1 sequence (P06213 763-1382 partner limits assumed): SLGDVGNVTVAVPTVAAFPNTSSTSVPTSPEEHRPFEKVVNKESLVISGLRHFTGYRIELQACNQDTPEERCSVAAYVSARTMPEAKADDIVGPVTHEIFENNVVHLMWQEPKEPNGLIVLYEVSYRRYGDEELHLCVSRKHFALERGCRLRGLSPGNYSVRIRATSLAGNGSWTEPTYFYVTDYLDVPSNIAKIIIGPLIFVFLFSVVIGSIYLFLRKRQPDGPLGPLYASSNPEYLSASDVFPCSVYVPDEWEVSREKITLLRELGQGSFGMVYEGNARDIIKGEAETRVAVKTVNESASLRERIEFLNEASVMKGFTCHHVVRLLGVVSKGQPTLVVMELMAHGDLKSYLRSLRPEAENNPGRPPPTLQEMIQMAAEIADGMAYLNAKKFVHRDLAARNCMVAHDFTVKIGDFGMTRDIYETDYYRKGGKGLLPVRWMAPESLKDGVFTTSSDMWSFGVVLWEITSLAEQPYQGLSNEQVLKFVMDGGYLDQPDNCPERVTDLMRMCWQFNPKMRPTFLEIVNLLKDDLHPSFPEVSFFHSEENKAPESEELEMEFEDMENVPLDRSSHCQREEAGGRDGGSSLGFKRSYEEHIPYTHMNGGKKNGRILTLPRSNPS

A word on the IC50: it is the concentration that gives 50% inhibition. Lower therefore signals greater potency. In turn, “N^6,B29, N^6,B29′-(C3-tartaric acid-C3)insulin human [Dimer 85]” displayed an IC50 of 1.8 nM. This lies in the single-digit nanomolar range.
